Reference: patent US11596614B2, “Treatment of intrahepatic cholestatic diseases” (CymaBay Therapeutics, Inc., priority 2014, dated 2023)

Key:
[1] = system: subjects with mixed dyslipidemia; details: cited from earlier work
[2] = system: subjects with an intrahepatic cholestatic disease such as PBC; test: Example 2: treatment of adult subjects with an intrahepatic cholestatic disease such as PBC; type: in vivo, human; details: 5, 10, 25, or 50 mg/day orally
Method: Subjects are permitted their usual other medications, including UDCA. […] At each visit, after a 12-hour fast, blood is drawn and urine collected; and a standard metabolic panel, complete blood count, and standard urinalysis are performed. Blood is analyzed for TC, HDL-C, TG, VLDL-C, LDL-C, and apolipoprotein B, for liver function markers such as total and bone-specific alkaline phosphatases, for γ-glutamyl transpeptidase, and also for total and conjugated bilirubin. The subjects also maintain health diaries, which are reviewed at each visit.

[3] = Preclinical elimination study; type: in vivo
subjects with PBC = test: Example 1: trial in subjects with PBC on UDCA; type: in vivo, human; details: on treatment, 50 or 200 mg/day
Source text: The trial subjects were adult, male or female, with a diagnosis of PBC by at least two of the following three criteria: (a) a history of alkaline phosphatase (ALP) above the upper limit of normal (ULN) for at least six months, (b) positive anti-mitochondrial antibody titers> 1/40 on immunofluorescence or M2 positive by enzyme linked immunosorbent assay or positive PBC-specific antinuclear antibodies, and (c) documented liver biopsy result consistent with PBC, on a stable and recommended dose of UDCA for the past twelve months, and ALP≥1.67×ULN. Exclusion criteria included AST or ALT≥3×ULN, total bilirubin (TBIL)≥2×ULN, autoimmune hepatitis or a history of chronic viral hepatitis, PSC, the current use of fibrates or simvastatin, the use of colchicine, methotrexate, azathioprine, or systemic steroids in the previous two months, the use of an experimental treatment for PBC, and the use of an experimental or unapproved immunosuppressant. The primary study endpoint was decrease in ALP, and the secondary endpoint was the responder rate for subjects achieving ALP<1.67×ULN and total bilirubin within normal limit, and >15% decrease in ALP. […] According to the original statistical plan, changes in ALP were calculated using the last observation carried forward. […]

PPARa = target: T1, PPARa (Homo sapiens, UniProt Q07869); test: Specificity for PPARδ compared with PPARa; type: biochemical
T1 sequence (Q07869 1-468): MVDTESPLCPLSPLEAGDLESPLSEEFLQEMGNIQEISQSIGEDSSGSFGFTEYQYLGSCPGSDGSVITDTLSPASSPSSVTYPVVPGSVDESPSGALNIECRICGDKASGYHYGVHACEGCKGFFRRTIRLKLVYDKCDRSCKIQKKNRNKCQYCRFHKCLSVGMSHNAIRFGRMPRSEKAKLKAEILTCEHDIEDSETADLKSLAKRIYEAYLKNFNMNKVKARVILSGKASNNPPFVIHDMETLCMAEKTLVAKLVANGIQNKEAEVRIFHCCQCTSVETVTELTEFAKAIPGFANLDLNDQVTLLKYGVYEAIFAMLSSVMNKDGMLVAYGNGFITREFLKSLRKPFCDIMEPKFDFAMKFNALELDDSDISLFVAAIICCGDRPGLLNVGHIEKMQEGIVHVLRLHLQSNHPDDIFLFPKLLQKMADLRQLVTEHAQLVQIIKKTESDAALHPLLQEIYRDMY
Source text: It is specific (>600-fold and >2500-fold compared with PPARa and peroxisome proliferator-activated receptor-γ receptors). PPARδ activation stimulates fatty acid oxidation and utilization, improves plasma lipid and lipoprotein metabolism, glucose utilization, and mitochondrial respiration, and preserves stem cell homeostasis.

[4] = gradient-gel electrophoresis, cited from earlier work
[5] = once daily oral, 8 weeks, seladelpar 50 or 100 mg, ATV 20 mg

Row | distribution of drug in bile [3] | specificity for PPARδ compared with PPARa (PPARa) [fold] | SMILES | decrease of large LDL particles ([1]; once daily oral, 8 weeks, ATV 20 mg) [%] | decrease of small/very small LDL particles [1, 5] | improvement in disease (ALP and GGT) [2] | adverse events of pruritus (subjects with PBC) | safety and tolerability ([1]; 50 or 100 mg once daily oral, 8 weeks) | reduction of high-sensitivity C-reactive protein ([1]; compared to placebo, seladelpar 50 or 100 mg once daily oral alone and in combination with ATV 20 mg, 8 weeks, P<0.05) | raise of HDL-C ([1]; compared to placebo, seladelpar 50 or 100 mg once daily oral alone and in combination with ATV 20 mg, 8 weeks) | reduction of the percentage of subjects meeting the criteria for metabolic syndrome ([1]; mixed dyslipidemia) [fold] | increase of large LDL particles ([1]; once daily oral, 8 weeks, seladelpar 50 or 100 mg) | conversion of LDL particle size pattern B (predominant LDL particle size less than 25.75 nm) [4] | conversion of LDL particle size pattern I (predominant LDL particle size 25.75 nm to 26.34 nm) ([4]; pattern A = predominant LDL particle size greater than 26.34 nm)
1 | – | – | CC(C)c1c(C(=O)Nc2ccccc2)c(-c2ccccc2)c(-c2ccc(F)cc2)n1CC[C@@H](O)C[C@@H](O)CC(=O)O [ATV, atorvastatin, reference compound] | 30 | 25% | – | – | – | – | – | – | – | – | –
2 | concentrated in bile | > 600 | CCO[C@H](COc1ccc(C(F)(F)F)cc1)CSc1ccc(OCC(=O)O)c(C)c1 [Seladelpar, (R)-2-(4-((2-ethoxy-3-(4-(trifluoromethyl)phenoxy)propyl)thio)-2-methylphenoxy)acetic acid] | – | 40-48% | a decrease in ALP and GGT | no adverse events of pruritus were reported | safe and generally well-tolerated | 43-72% | 1-12% | > 2 | 34-44% | to pattern I or A | to pattern A
